Here are results for 63 compounds from a melting point compilation (Tetko et al.; mined from patent text by program, amines drawn as free bases though some values may be those of a salt).

Residues, ends and D or L forms follow the SMILES beside them.

The melting point is the temperature of the solid-liquid transition. Compound `CCOC(=O)c1ccc(CNC(=O)c2csc3nc(C(=O)OCC)[nH]c(=O)c23)cc1` returned a melting point of 227 to 228 °C.

As to `CCCc1nc(-n2c(C)ccc2C)c(/C=C/C(=O)O)n1Cc1ccc(-c2ccccc2-c2nnn[nH]2)cc1`, the melting point lay within 144 to 150 °C.

For `CC(=O)Nc1c(C(C)=O)[nH]c2cc(Cl)ccc12`, the melting point lay within 262 to 267 °C.

The compound `Cc1c(Br)c2c(c(C)c1NC(=O)OC(C)(C)C)CC(C)O2` (stereo not drawn) gave a melting point of 115 to 116 °C.

`CSc1ncccc1NC(=O)CCCCCCCCSc1nc2ccccc2o1` yielded a melting point of 84 to 85 °C.

Regarding `COC(=O)c1ccc(-c2ncc(-c3ccc4c(c3)C(C)(C)CCC4(C)C)o2)cc1`, the melting point lay in the range of 153 to 155 °C.

On to `CCCCCNc1nc(N(C)Cc2ccccc2)c2ncn(CC(=O)O)c2n1`, for which the melting point was 134 to 142 °C.

`COc1cc([N+](=O)[O-])c2nc(C(F)(F)F)cc(O)c2c1` showed a melting point of 138 to 140 °C.

The compound `O=C(c1ccccc1)c1ccc2nc3c(C(=O)O)cccc3nc2c1` registered a melting point of 236 to 237 °C.

Compound `Oc1cc(Cl)cc2c1CCC2` gave a melting point of 56 to 59 °C.

Compound `COc1ccc2c(c1)CC[C@@H]1[C@@H]2CC[C@@]2(C)[C@H]1CCC21C=CCO1` (stereo partly drawn) showed a melting point of 159 to 161 °C.

With `CC(=O)NC[C@H]1CN(c2ccc(N3CCN(C(=O)CCCC(=O)c4ccc(NC(=O)CN)cc4)CC3)c(F)c2)C(=O)O1`, the melting point lay in the range of 178 to 181 °C.

Compound `COc1ccc(-c2cc(C(=O)NCCCCCCCCc3ccccc3)cc(-c3cccc(C(F)(F)F)c3)c2OCC(=O)O)cc1` displayed a melting point of 139 to 144 °C.

`Cc1cccc(CC(=O)O)c1OCCCc1cn(-c2ccc(C(F)(F)F)cn2)nc1C(C)(C)C` registered a melting point of 86 to 87 °C.

On to `COCCNc1c(N)cc(C(=O)O)cc1S(N)(=O)=O`, for which the melting point is 209 to 211 °C.

`Cc1ccc(-c2cccnc2C#N)cc1` came in with a melting point of 136 to 138 °C.

In turn, `COc1ccc(CNc2n[nH]cc2C#N)cc1OC1CCCC1` came in with a melting point of 159 to 160 °C.

For the compound `COc1ccccc1-n1c(-c2sc(Nc3ccccc3)nc2-c2ccccc2)nc2ccccc2c1=O`, the melting point lay in the range of 224 to 225 °C.

The compound `CC1OC(=O)c2c(O)cccc21` (stereo not drawn) showed a melting point of 107 to 108 °C.

In the case of `O=C(O)CCNC(=O)c1ccccc1NC(=O)c1ccccc1O`, the melting point was 200 to 202 °C.

The compound `CC(C)c1ccc2c(c1)OCc1ccc(C#N)cc1C2=O` registered a melting point of 101 to 108 °C.

On to `NC1Cc2ccccc2N(c2ccccc2)C1=O` (stereo not drawn), for which the melting point lay within 108 to 110 °C.

In turn, `CCc1cc(Cc2cc(CC)c(N=C=O)c(CC)c2)cc(CC)c1N=C=O` returned a melting point of 56 to 57 °C.

Compound `O=C(Nc1cccnc1)N1CCN(c2nc(-c3cccc(Cl)c3Cl)cs2)CC1` had a melting point of 132 to 133 °C.

Regarding `Cc1cccc(-c2nsc(=O)o2)c1`, the melting point was in the range of 82.5 to 84 °C.

Take `NC(=O)c1cccc(OCc2ccc(F)cc2)c1`: the melting point lay in the range of 161 to 162 °C.

`CC(=O)N1c2ccccc2CC1C(N)=NO` (stereo not drawn) registered a melting point of 204 to 205 °C.

The compound `COc1cccc(C(O)c2ccncc2)c1OC` (stereo not drawn) displayed a melting point of 126 to 128 °C.

On to `CC(=O)NC(Cc1ccccc1)C(=O)NC(Cc1ccccc1)C(=O)NC(Cc1c[nH]cn1)C(=O)O` (stereo not drawn) (Ac-Phe-Phe-His-OH; configuration not given here), for which the melting point fell in the range of 143 to 145 °C.

Turning to `Cc1c(NC(=O)CC(C)(C)C)c(C)c2c(-c3ccc(C(C)C)cc3)coc2c1C`, the melting point fell in the range of 229 to 230 °C.

In the case of `CCOCC1OC(n2cc(C(F)(F)F)c(=O)n(C(=O)c3ccccc3)c2=O)CC1O` (stereo not drawn), the melting point fell in the range of 156 to 157 °C.

For the compound `CCOC(=O)/C=C1\CCOc2ccc(N)cc21`, the melting point was found to be 97 °C.

`CCc1ncnc(NC2CCC3(CC2)OCC(CO)O3)c1Cl` (stereo not drawn): the melting point lay within 97 to 98 °C.

In turn, `O=C1C2CCCC2=Nc2ccccc2N1Cc1ccc(F)cc1` (stereo not drawn) registered a melting point of 134 to 137 °C.

`CC(=O)Nc1cccc(C(=O)NCc2ccc(-n3c(-c4cccnc4N)nc4ccc(C)nc43)cc2)c1` displayed a melting point of 157 to 161 °C.

In turn, `NC(=O)CCn1nccc1-c1ccc(Oc2ccc(F)cc2)cc1` displayed a melting point of 118 to 120 °C.

`CC(=O)c1cc2c(s1)C(=O)c1c(C(C)=O)csc1C2=O` returned a melting point of 207 to 208 °C.

`Cc1ccc2nc(Cl)c(C#N)c(Cl)c2c1` returned a melting point of 159 °C.

Regarding `COc1cc(C(C)(C)O)cc(Br)c1O`, the melting point lay within 107 to 112 °C.

Turning to `Cn1c(=O)c(-c2ccc(Cl)cc2Cl)cc2c3cc(-c4csc(CO)n4)ccc3n(C)c21`, the melting point lay within 261 to 262 °C.

On to `CC(C)(Cc1ccccc1)C(NC(=O)CCc1ccccc1)Nc1c(Nc2cccnc2)c(=O)c1=O` (stereo not drawn), for which the melting point lay in the range of 221 to 223 °C.

For the compound `CCOC(=O)[C@@H](C)OC(=O)c1ccc([N+](=O)[O-])cc1`, the melting point lay in the range of 42 to 43 °C.

Consider `COc1cc(F)c(N2CCCC2=O)c(S(N)(=O)=O)c1`, for which the melting point amounted to 205 °C.

For `CC(=O)c1ccc(C(=O)O)o1`, the melting point lay within 189 to 195 °C.

In turn, `Cc1nc(N2CCN(Cc3ccc(C(F)(F)F)cc3)C2=O)sc1C(=O)O` came in with a melting point of 195 to 197 °C.

`Cc1ncc(CN2CCN(c3ccccc3C)CC2)c(N)n1` yielded a melting point of 189 to 190 °C.

With `C=CCN(CC=C)c1nc(N(CC=C)CC=C)nc(N2CCN(C(=O)n3ccnc3)CC2)n1`, the melting point is 94 to 95 °C.

Turning to `O=C(NCC1CCN(CC2(C(=O)O)CCCC2)CC1)N1C(=O)C2(CCCC2)c2ccccc21`, the melting point came out at 188 °C.

As for `CN(C)c1nc(=O)c(C(C)(C)C)nn1N`, the melting point was 168 to 169 °C.

In turn, `COC1(c2cc(Sc3ccc(/C(C)=N/O)cc3)nc(N)n2)CCOCC1` gave a melting point of 237 to 240 °C.

For `CCN(CC)CC(O)c1c[nH]c2c1ccc1c3ccccc3[nH]c12` (stereo not drawn), the melting point lay within 148 to 150 °C.

In the case of `COCCN(CCOC)c1ccc(Nc2ncc3c(C)c(C(C)=O)c(=O)n(C4CCCC4)c3n2)nc1`, the melting point was determined as 138 °C.

Compound `NC(=O)c1ccc([N+](=O)[O-])c(CN2C(=O)c3ccccc3C2=O)c1` registered a melting point of 100 to 124 °C.

Compound `O=C(O)c1ccc2c(c1)C(C(Cl)Cl)OC(C(Cl)(Cl)Cl)O2` (stereo not drawn) came in with a melting point of 209 °C.

On to `COc1cc(OC)c2c(=O)[nH]c(-c3cccc(-c4ccc(S(C)=O)cc4)n3)nc2c1` (stereo not drawn), for which the melting point lay within 281 to 282 °C.

Take `Cc1ccc(C(=O)Nc2ccccc2C(N)=O)cc1`: the melting point lay in the range of 206 to 208 °C.

The compound `CC(C)(C)OC(=O)N[C@H](Cc1ccc(Cl)c(Cl)c1)C(=O)N1CCC[C@H]1C(=O)NCC1CCc2nc(N)ncc2C1` (stereo partly drawn) came in with a melting point of 110 to 113 °C.

`CCOC(=O)c1cnn(-c2ccc(Br)cc2)c1C#N` registered a melting point of 104 to 105 °C.

In the case of `COc1ccc2c(C)c(Cl)ccc2c1C(F)(F)F`, the melting point was in the range of 102 to 103 °C.

In the case of `Brc1nc2cncnc2n1Cc1ccccc1`, the melting point was in the range of 119 to 121 °C.

Take `CC(=O)c1cc(N=c2cc(C)n(C)c(N)n2)cc(C(C)=O)c1`: the melting point is 219 to 220 °C.

Compound `Cc1cccc2cc3c(=O)n(C)cc(C(=O)N[C@@H](C)C(=O)N(C)C)c3nc12` showed a melting point of 268 to 274 °C.

`Cc1ccccc1CC(=O)Nc1ccc(C(=O)N2Cc3cccn3Cc3ccccc32)cc1`: the melting point was 198 to 200 °C.
